Laboratory results as given in patent publication US9695155B2, “Herbicidal substituted pyrimidinyloxy benzene compounds” (E. I. DU PONT DE NEMOURS AND COMPANY, priority 2013, dated 2017).

Key:
[1] = tested on: cupgrass, woolly; assay: Test C postemergence; type: in vivo, Eriochloa villosa; settings: for Plant response rating (0 to 100), Cupgrass, Woolly: postemergence; for Plant response rating, Cupgrass, Woolly: Postemergence, scale 0 to 100 (0 no effect, 100 complete control)
Description: (§1) Seeds of plant species selected from blackgrass (Alopecurus myosuroides), Italian ryegrass (Lolium multiflorum), wheat, winter (winter wheat, Triticum aestivum), galium (catchweed bedstraw, Galium aparine), corn (Zea mays), large (Lg) crabgrass (Digitaria sanguinalis), giant foxtail (Setaria faberii), johnsongrass (Sorghum halepense), lambsquarters (Chenopodium album), morningglory (Ipomoea coccinea), yellow nutsedge (Cyperus esculentus), pigweed (Amaranthus retroflexus), ragweed (common ragweed, Ambrosia elatior), soybean (Glycine max), barnyardgrass (Echinochloa crus-galli), oilseed rape (Brassica napus), waterhemp (common waterhemp, Amaranthus rudis), kochia (Kochia scoparia), wild oat (Avena fatua), surinam grass (Brachiaria decumbens), foxtail, green (green foxtail, Setaria viridis), goosegrass (Eleusine indica), bromegrass, downy (downy bromegrass, Bromus tectorum), nightshade (eastern black nightshade, Solanum ptycanthum), cocklebur (common cocklebur, Xanthium strumarium), cupgrass, woolly (woolly cupgrass, Eriochloa villosa), bermudagrass (Cynodon dactylon), sunflower, (common oilseed sunflower, Helianthus annuus), Russian thistle (Salsola kali), and velvetleaf (Abutilon theophrasti) were planted into a blend of loam soil and sand and treated preemergence with test chemicals formulated in a non-phytotoxic solvent mixture which included a surfactant.
(§2) At the same time, plants selected from these crop and weed species and also barley, winter (winter barley, Hordeum vulgare), windgrass (Apera spica-venti), chickweed (common chickweed, Stellaria media), deadnettle (henbit deadnettle, Lamium amplexicaule), and canarygrass (littleseed canarygrass, Phalaris minor) were planted in pots containing Redi-Earth® planting medium (Scotts Company, 14111 Scottslawn Road, Marysville, Ohio 43041) comprising spaghnum peat moss, vermiculite, wetting agent and starter nutrients and treated with postemergence applications of test chemicals formulated in the same manner. Plants ranged in height from 2 to 18 cm (1- to 4-leaf stage) for postemergence treatments. Treated plants and controls were maintained in a greenhouse for 13 to 15 days, after which time all species were compared to controls and visually evaluated. Plant response ratings, summarized in Table C, are based on a scale of 0 to 100 where 0 is no effect and 100 is complete control. A dash (-) response means no test result.

[2] = tested on: barley, winter; assay: Test C postemergence; type: in vivo, Hordeum vulgare; settings: for Plant response rating (0 to 100), Barley: postemergence; for Plant response rating, Barley: Postemergence, scale 0 to 100 (0 no effect, 100 complete control)
Description: as §1, §2

[3] = tested on: bermudagrass; assay: Test C postemergence; type: in vivo, Cynodon dactylon; settings: for Plant response rating (0 to 100), Bermudagrass: postemergence; for Plant response rating, Bermudagrass: Postemergence, scale 0 to 100 (0 no effect, 100 complete control)
Description: as §1, §2

[4] = tested on: windgrass; assay: Test C postemergence; type: in vivo, Apera spica-venti; settings: for Plant response rating (0 to 100), Windgrass: postemergence; for Plant response rating, Windgrass: Postemergence, scale 0 to 100 (0 no effect, 100 complete control)
Description: as §1, §2

[5] = tested on: goosegrass; assay: Test C postemergence; type: in vivo, Eleusine indica; settings: for Plant response rating (0 to 100), Goosegrass: postemergence; for Plant response rating, Goosegrass: Postemergence, scale 0 to 100 (0 no effect, 100 complete control)
Description: as §1, §2

[6] = tested on: canarygrass; assay: Test C postemergence; type: in vivo, Phalaris minor; settings: for Plant response rating (0 to 100), Canarygrass: postemergence; for Plant response rating, Canarygrass: Postemergence, scale 0 to 100 (0 no effect, 100 complete control)
Description: as §1, §2

[7] = tested on: bromegrass, downy; assay: Test C postemergence; type: in vivo, Bromus tectorum; settings: for Plant response rating (0 to 100), Bromegrass, Downy: postemergence; for Plant response rating, Bromegrass, Downy: Postemergence, scale 0 to 100 (0 no effect, 100 complete control)
Description: as §1, §2

[8] = tested on: surinam grass; assay: Test C postemergence; type: in vivo, Brachiaria decumbens; settings: for Plant response rating, Surinam Grass: Postemergence, scale 0 to 100 (0 no effect, 100 complete control)
Description: as §1
as §2, with “Treated plants and controls were maintained in a greenhouse for 13 to 15 days, after which time all species were compared to controls and visually evaluated. Plant response ratings, summarized in Table C, are based on a scale of 0 to 100 where 0 is no effect and 100 is complete control. A dash (-) response means no test result.” left out

[9] = tested on: cocklebur; assay: Test C postemergence; type: in vivo, Xanthium strumarium; settings: for Plant response rating (0 to 100), Cocklebur: postemergence; for Plant response rating, Cocklebur: Postemergence, scale 0 to 100 (0 no effect, 100 complete control)
Description: as §1, §2

[10] = tested on: foxtail, green; assay: Test C postemergence; type: in vivo, Setaria viridis; settings: for Plant response rating (0 to 100), Foxtail, Green: postemergence; for Plant response rating, Foxtail, Green: Postemergence, scale 0 to 100 (0 no effect, 100 complete control)
Description: as §1, §2

[11] = tested on: deadnettle; assay: Test C postemergence; type: in vivo, Lamium amplexicaule; settings: for Plant response rating (0 to 100), Deadnettle: postemergence; for Plant response rating, Deadnettle: Postemergence, scale 0 to 100 (0 no effect, 100 complete control)
Description: as §1, §2

[12] = tested on: smartweed; assay: Test E preemergence; type: in vivo, ladysthumb smartweed; settings: for Smartweed plant response rating: scale 0 to 100 (0 no effect, 100 complete control); for Plant response rating, Smartweed: scale 0 to 100, 0 no effect, 100 complete control
Description: Seeds of plant species selected from corn (Zea mays), soybean (Glycine max), velvetleaf (Abutilon theophrasti), lambsquarters (Chenopodium album), wild poinsettia (Euphorbia heterophylla), palmer pigweed (Amaranthus palmeri), waterhemp (common waterhemp, Amaranthus rudis), surinam grass (Brachiaria decumbens), large (Lg) crabgrass (Digitaria sanguinalis), Brazilian crabgrass (Digitaria horizontalis), fall panicum (Panicum dichotomiflorum), giant foxtail (Setaria faberii), green foxtail (Setaria viridis), goosegrass (Eleusine indica), johnsongrass (Sorghum halepense), ragweed (common ragweed, Ambrosia elatior), barnyardgrass (Echinochloa crus-galli), sandbur (southern sandbur, Cenchrus echinatus), arrowleaf sida (Sida rhombifolia), Italian ryegrass (Lolium multiflorum), dayflower (Virginia (VA) dayflower, Commelina virginica), field bindweed (Convolvulus arvensis), morningglory (Ipomoea coccinea), nightshade (eastern black nightshade, Solanum ptycanthum), kochia (Kochia scoparia), yellow nutsedge (Cyperus esculentus), cocklebur (common cocklebur, Xanthium strumarium), smartweed (ladysthumb smartweed, and hairy beggarticks (Bidens pilosa), were planted into a silt loam soil and treated preemergence with test chemicals formulated in a non-phytotoxic solvent mixture which included a surfactant.
At the same time, plants from these crop and weed species and also horseweed (Canada horseweed, Conyza canadensis), waterhemp_RES1, (ALS & Triazine resistant common waterhemp, Amaranthus rudis), and waterhemp_RES2, (ALS & HPPD resistant common waterhemp, Amaranthus rudis) were planted in pots containing Redi-Earth® planting medium (Scotts Company, 14111 Scottslawn Road, Marysville, Ohio 43041) comprising spaghnum peat moss, vermiculite, wetting agent and starter nutrients were treated with postemergence applications of test chemicals formulated in the same manner. Plants ranged in height from 2 to 18 cm for postemergence treatments (1- to 4-leaf stage). Treated plants and controls were maintained in a greenhouse for 14 to 21 days, after which time all species were compared to controls and visually evaluated. Plant response ratings, summarized in Table E, are based on a scale of 0 to 100 where 0 is no effect and 100 is complete control. A dash (-) response means no test result.

Clc1cnn(-c2ccccc2Oc2ncc(Br)cn2)c1 [Compound 5, 5-bromo-2-[2-(4-chloro-1H-pyrazol-1-yl)phenoxy]pyrimidine]
Plant response rating (0 to 100), Cupgrass, Woolly ([1]; 125 g ai/ha): 10
Plant response rating (0 to 100), Cupgrass, Woolly ([1]; 250 g ai/ha): 30
Plant response rating, Cupgrass, Woolly ([1]; 31 g ai/ha, 13 to 15 days): 0
Plant response rating, Cupgrass, Woolly ([1]; 62 g ai/ha): 10
Plant response rating (0 to 100), Barley ([2]; 125 g ai/ha): 5
Plant response rating (0 to 100), Barley ([2]; 250 g ai/ha): 10
Plant response rating, Barley ([2]; 31 g ai/ha, 13 to 15 days): 0
Plant response rating, Barley ([2]; 62 g ai/ha): 0
Plant response rating (0 to 100), Bermudagrass ([3]; 125 g ai/ha): 10
Plant response rating (0 to 100), Bermudagrass ([3]; 250 g ai/ha): 35
Plant response rating, Bermudagrass ([3]; 31 g ai/ha, 13 to 15 days): 0
Plant response rating, Bermudagrass ([3]; 62 g ai/ha): 0
Plant response rating (0 to 100), Windgrass ([4]; 125 g ai/ha): 60
Plant response rating (0 to 100), Windgrass ([4]; 250 g ai/ha): 85
Plant response rating, Windgrass ([4]; 31 g ai/ha, 13 to 15 days): 10
Plant response rating, Windgrass ([4]; 62 g ai/ha): 40
Plant response rating (0 to 100), Goosegrass ([5]; 125 g ai/ha): 10
Plant response rating (0 to 100), Goosegrass ([5]; 250 g ai/ha): 15
Plant response rating, Goosegrass ([5]; 31 g ai/ha, 13 to 15 days): 0
Plant response rating, Goosegrass ([5]; 62 g ai/ha): 5
Plant response rating (0 to 100), Canarygrass ([6]; 125 g ai/ha): 30
Plant response rating (0 to 100), Canarygrass ([6]; 250 g ai/ha): 40
Plant response rating, Canarygrass ([6]; 31 g ai/ha, 13 to 15 days): 5
Plant response rating, Canarygrass ([6]; 62 g ai/ha): 10
Plant response rating (0 to 100), Bromegrass, Downy ([7]; 125 g ai/ha): 5
Plant response rating (0 to 100), Bromegrass, Downy ([7]; 250 g ai/ha): 10
Plant response rating, Bromegrass, Downy ([7]; 31 g ai/ha, 13 to 15 days): 5
Plant response rating, Bromegrass, Downy ([7]; 62 g ai/ha): 5
Plant response rating (0 to 100), Surinam Grass ([8]; 125 g ai/ha, postemergence): 45
Plant response rating, Surinam Grass ([8]; 31 g ai/ha, 13 to 15 days): 10
Plant response rating, Surinam Grass ([8]; 62 g ai/ha): 35
Plant response rating (0 to 100), Cocklebur ([9]; 125 g ai/ha): 50
Plant response rating (0 to 100), Cocklebur ([9]; 250 g ai/ha): 65
Plant response rating, Cocklebur ([9]; 31 g ai/ha, 13 to 15 days): 25
Plant response rating, Cocklebur ([9]; 62 g ai/ha): 50
Plant response rating (0 to 100), Foxtail, Green ([10]; 125 g ai/ha): 40
Plant response rating (0 to 100), Foxtail, Green ([10]; 250 g ai/ha): 70
Plant response rating, Foxtail, Green ([10]; 31 g ai/ha, 13 to 15 days): 0
Plant response rating, Foxtail, Green ([10]; 62 g ai/ha): 40
Plant response rating (0 to 100), Deadnettle ([11]; 125 g ai/ha): 90
Plant response rating (0 to 100), Deadnettle ([11]; 250 g ai/ha): 90
Plant response rating, Deadnettle ([11]; 31 g ai/ha, 13 to 15 days): 50
Plant response rating, Deadnettle ([11]; 62 g ai/ha): 50

N#Cc1cccc(Oc2ncc(Cl)cn2)c1-n1cc(Cl)cn1 [Compound 72]
Smartweed plant response rating ([12]; 16 g ai/ha): 0
Smartweed plant response rating ([12]; 31 g ai/ha): 0
Smartweed plant response rating ([12]; 62 g ai/ha): 0
Plant response rating, Smartweed ([12]; 125 g ai/ha): 90
Plant response rating, Smartweed ([12]; 250 g ai/ha): 98
